Source: PubChem BioAssay (NCI)
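Briefly, cells in 96-well plates were exposed to five compound concentrations for 48 h, and endpoints were estimated by linear interpolation. Here, GI50 denotes the concentration required for 50% inhibition of growth. TGI marks complete inhibition of growth.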

Legend:
Assay in all cases: NCI-60 cell line screen, 48 h
A549 NSCLC = test system: A549 NSCLC
CAKI-1 renal = test system: CAKI-1 renal
EKVX NSCLC = test system: EKVX NSCLC
HCC-2998 colon = test system: HCC-2998 colon
HCT-116 colon = test system: HCT-116 colon
LOX IMVI melanoma = test system: LOX IMVI melanoma
OVCAR-5 ovarian = test system: OVCAR-5 ovarian
SK-OV-3 ovarian = test system: SK-OV-3 ovarian
SNB-75 CNS = test system: SNB-75 CNS
TK-10 renal = test system: TK-10 renal

Compound	TGI (A549 NSCLC) [µM]	TGI (CAKI-1 renal) [µM]	TGI (EKVX NSCLC) [µM]	TGI (HCC-2998 colon) [µM]	TGI (HCT-116 colon) [µM]	TGI (LOX IMVI melanoma) [µM]	TGI (OVCAR-5 ovarian) [µM]	TGI (SK-OV-3 ovarian) [µM]	TGI (SNB-75 CNS) [µM]	TGI (TK-10 renal) [µM]	GI50 (CAKI-1 renal) [µM]	GI50 (EKVX NSCLC) [µM]	GI50 (HCC-2998 colon) [µM]	GI50 (OVCAR-5 ovarian) [µM]	GI50 (SK-OV-3 ovarian) [µM]	GI50 (SNB-75 CNS) [µM]	GI50 (TK-10 renal) [µM]	GI50 (A549 NSCLC) [µM]	GI50 (HCT-116 colon) [µM]	GI50 (LOX IMVI melanoma) [µM]
CC1CC(c2ccc([N+](=O)[O-])cc2)=Nc2ccccc2S1=O (centres undefined)	41.4	61.2	60.9	36.8	4.72	25.6	70	64.9	53.2	91.6	–	–	–	–	–	–	–	–	–	–
Cc1ccc(C(=O)N/N=C(\N=Nc2ccccc2)c2ccc(N(CCC#N)CCC#N)cc2C)cc1	> 100	> 100	> 100	> 100	–	> 100	> 100	> 100	> 100	> 100	–	–	–	–	–	–	–	–	–	–
C/C=C1/C(=O)O[C@]23C=C[C@@H]4C(C(=O)OC)=CO[C@H](O[C@@H]12)[C@@H]43	11.1	3.21	3.64	5.99	1.97	0.725	7.69	9.75	7.38	–	–	–	–	–	–	–	–	–	–	–
COc1cc2c(cc1O)N=C[C@@H]1CCC(O)N1C2=O (mixture of isomers)	71.6	11.7	5.99	2.81	34	0.974	18.8	84	3.26	–	–	–	–	–	–	–	–	–	–	–
CC(CNc1nc(Nc2ccc(Cl)c(Cl)c2)nc(C(Cl)(Cl)Cl)n1)N(C)C (centres undefined)	–	3.59	4.62	3.04	–	–	3.2	3.18	4.7	3.27	1.7	1.99	1.58	1.61	1.6	1.53	1.77	–	–	–
O=C1NC(=O)C2(CCc3ccc(N(CCCl)CCCl)cc32)N1 (centres undefined)	> 65	> 47.9	16.4	34.1	31.7	26.5	50.2	47	26.3	–	–	–	–	–	–	–	–	–	–	–
CCc1ncc(C(C)(O)c2ccccc2)n1Cc1ccccc1 (centres undefined)	> 100	> 100	> 100	–	11	94	> 100	> 100	> 100	> 100	–	–	–	–	–	–	–	–	–	–
COc1ccc2oc3c(ccc[n+]3C)c(=O)c2c1	> 100	> 100	> 100	> 100	> 100	> 100	> 100	> 100	> 100	> 100	–	–	–	–	–	–	–	–	–	–
CC(=O)Nc1nc(C)c(-c2cc3c(c(S(C)(=O)=O)c2)C(=O)N([C@@H](C)C2CC2)C3)s1	> 100	55.4	79.9	> 100	> 100	> 100	> 100	56.4	35.6	75.4	17.6	18.3	46.7	29.9	22.2	3.11	20.7	28	28.3	29.1
